Results reported in paper PMC5643462, “Encrypted Antimicrobial Peptides from Plant Proteins” (Scientific Reports, 2017).
Like-named read-outs stand apart in the source and are kept apart here. No end group written: not given here.

Experiments:
human red blood cells = experiment: Cytotoxicity: hemolysis of human red blood cells; type: cell-based; details: for Concentration that induced 50% hemolysis: red cells of human
Method: The cytotoxicity of the selected IAPS was performed using human red blood cells in strict accordance with relevant guidelines and regulations (Ethical committee – UnB # 1.939.989). Different concentrations of IAPs (128 µM–0.5 µM) were incubated with a final concentration of 2.5 × 10^5 red blood cells.mL^−1. Briefly, 100 µL of red blood cells was incubated with 100 µL of different concentrations of each IAP, prepared in PBS, for 30 minutes at 37 °C, with constant shaking at 120 rpm. PBS and Triton X-100 0.1% (v/v) were used as negative and positive controls, respectively. After incubation, the solution was centrifuged at 900 × g for five minutes followed by transferring 50 µL of the supernatant to flat-bottom polystyrene 96-well micro plates containing 50 µL of PBS. Microplate reading was performed at a BioTek Multireader, using a wavelength of 540 nm. All tests were performed in 3 biological replicates, composed of 3 biological repetitions each. The obtained data was subtracted by the negative control and relative to the positive control, defined as 100% lysis.

[1] = system: Moniliophthora perniciosa basidiospores; experiment: Inhibition of M. perniciosa basidiospore germination; type: cell-based; details: 1 × 10^6 basidiospores mL^−1, one hour with peptide (256-0.5 µM), 24 °C, counted after 4 hours on agar slides, biological triplicates; for IC50: concentration at which at least 50% of basidiospores germination was inhibited, read-out: Inhibitory concentration IC50, M. perniciosa basidiospores germination; for Inhibitory concentration IC95, M. perniciosa basidiospores germination: concentration at which at least 95% of basidiospores germination was inhibited
Method: The antimicrobial potential of T. cacao IAPs for inhibiting M. perniciosa basidiospores was evaluated. Briefly, 1 × 10^6 basidiospores mL^−1 were incubated for one hour with different concentrations of T. cacao IAPs (256-0.5 µM), at 24 °C, in a final volume of 100 µL. Autoclaved dH20 was used as a control. After incubation, 3 droplets of 10 µL each were placed in a slide coated with agar (1.2% (w/v)). Slides were incubated for 4, 24 and 48 hours at 24 °C. Slides were visualized using a DMRXA light microscope (Leica). Approximately 150–200 basidiospores per droplet from each time point were counted and compared to the control condition, which was defined as 100% germination. All experiments were performed in biological triplicates, with 3 technical repetitions each.

[2] = Far-UV circular dichroism, helix percentage in buffer and with LUVs; type: physicochemical; details: room temperature, from [θ]222 nm, * = β-sheet structure; for %Hel 2:1 DMPC/DMPG: 40 μM peptide + 2 mM 2:1 DMPC:DMPG LUVs (50 fold excess); for %Hel 2:1 DMPC/DMPG / %Hel DMPC: pH 7.4 buffer; for %Hel DMPC: 40 μM peptide + 2 mM DMPC LUVs (50 fold excess); for %Hel buffer: 40 μM peptide in 20 mM sodium phosphate, 150 mM NaCl, pH 7.4
Method: DMPC and 2:1 DMPC:DMPG (w/w) were dissolved in chloroform and methanol (3:1 v/v) at 10 mg/mL, dried using a rotary evaporator and left 3 hours under high vacuum in a freeze dryer. Phospholipids were then dissolved in 20 mM Sodium phosphate – NaOH, 150 mM NaCl, pH 7.4 and hand-shaken until the formation of a cloudy solution, which was passed 19 times through a 100 nm polycarbonate membrane at 30 °C for the formation of large unilamelar vesicles (LUVs) using a mini-extruder (Avanti Polar Lipids). Phospholipid concentration was estimated according to the ammonium ferrothiocyanate method.
Experiments were conducted on a Jasco-J815 spectropolarimeter (Jasco International Co.). Spectra were acquired at room temperature from 200 to 260 nm as an average of 4 readings using a 0.1 cm path length cell, data pitch of 0.2 nm and a response time of 0.5 s. Data Scans of buffer and 2 mM DMPC and 2:1 DMPC:DMPG LUVs solutions were acquired and subtracted from each peptide data. Peptides were scanned at a concentration of 40 μM in buffer and then 50 fold excess of DMPC and 2:1 DMPC:DMPG LUVs were added, resulting in a molar ratio of 0.02 peptide/phospholipid. The spectra were converted to mean residue ellipticity and readings at [θ]222 nm were used to estimate helix percentages.

Substance	Hemolytic activity (% ± SD) at 1 µM (human red blood cells) [%]	Hemolytic activity (% ± SD) at 2 µM (human red blood cells) [%]	Hemolytic activity (% ± SD) at 4 µM (human red blood cells) [%]	Hemolytic activity (% ± SD) at 8 µM (human red blood cells)	Hemolytic activity (% ± SD) at 16 µM (human red blood cells) [%]	Hemolytic activity (% ± SD) at 32 µM (human red blood cells) [%]	Hemolytic activity (% ± SD) at 64 µM (human red blood cells)	Hemolytic activity (% ± SD) at 128 µM (human red blood cells) [%]	Hemolytic activity of human red blood cells (%) SC50 (human red blood cells) [µM]	Concentration that induced 50% hemolysis (human red blood cells) [µM]	IC50 [1] [µM]	Inhibitory concentration IC95, M. perniciosa basidiospores germination [1] [µM]	%Hel 2:1 DMPC/DMPG [2] [%]	%Hel DMPC [2] [%]	%Hel buffer [2] [%]	Hemolytic activity of human red blood cells (%) SC50 (human red blood cells; SC50 = IAP concentration that at least 50% of red blood cells remain intact, 128 µM–0.5 µM tested, PBS, 30 minutes, 37 °C, absorbance 540 nm) [µM]
ANRLLEAYKMLLKFLGNLR-NH2 [Gr02]	0.01 ± 0.01	0.38 ± 0.09	1.23 ± 0.05	4.19 ± 0.78%	7.01 ± 3.48	28.33 ± 4.77	46.44 ± 7.63%	68.42 ± 5.45	64	64	–	–	–	–	–	–
FFYNVIKIYGNMAGRISK-NH2 [Cs03]	0.00 ± 0.00	0.02 ± 0.00	0.01 ± 0.00	0.00 ± 0.00%	0.21 ± 0.05	0.99 ± 0.34	4.11 ± 1.22%	14.51 ± 1.55	>128	–	–	–	–	–	–	–
GAKLAKKQVRALGKFFSF-NH2 [At03]	0.00 ± 0.00	0.00 ± 0.00	0.04 ± 0.01	0.02 ± 0.00%	0.00 ± 0.00	0.03 ± 0.00	0.17 ± 0.08%	0.34 ± 0.11	>128	–	–	–	–	–	–	–
GFKDLLKGAAKALVKTVLF-NH2 [Asc-8, Ascaphin-8, reference compound]	0.00 ± 0.00	0.32 ± 0.1	0.26 ± 0.2	14.72 ± 0 .79%	28.10 ± 4.76	54.35 ± 4.5	91.90 ± 6.36%	101.56 ± 9.52	16	–	8	16	–	–	–	–
GIVLKDLFSEKLRRYKIVIG [Tc09, IAP from Theobroma cacao, NB-ARC domain-containing disease resistance protein, putative]	–	–	–	–	–	–	–	–	–	–	–	–	0.0	19.3	12.3	–
GKILKYLLYLLRKYANLIIR-NH2 [Tc02]	0.00 ± 0.00	0.00 ± 0.00	0.40 ± 0.26	2.89 ± 1.12%	6.30 ± 1.59	17.39 ± 1.15	29.15 ± 2.57%	50.15 ± 5.15	64	64	8	16	–	–	–	–
GLLFKELQKLIRYQIFIGK-NH2 [Tc10]	0.00 ± 0.0	0.00 ± 0.0	0.18 ± 0.04	0.06 ± 0.02%	0.00 ± 0.00	0.23 ± 0.10	0.68 ± 0.17%	4.56 ± 0.58	>128	–	32	64	–	–	–	–
GLYNFIKVLGRTVFGLYKQF-NH2 [At04]	0.00 ± 0.00	0.00 ± 0.00	0.00 ± 0.00	0.09 ± 0.04%	0.40 ± 0.10	0.91 ± 0.20	4.12 ± 1.41%	13.8 ± 2.41	>128	–	–	–	–	–	–	–
GSLHGFMYKYLKNMVLTLF-NH2 [At01]	0.00 ± 0.00	0.00 ± 0.00	0.00 ± 0.00	0.00 ± 0.00%	0.19 ± 0.01	1.05 ± 0.22	5.04 ± 2.39%	14.6 ± 2.14	>128	–	–	–	–	–	–	–
IKLRNVLKYLFRIDVIKEDIL-NH2 [Tc03]	0.03 ± 0.00	0.04 ± 0.03	0.00 ± 0.00	0.17 ± 0.04%	0.09 ± 0.01	0.67 ± 0.30	2.29 ± 1.18%	7.89 ± 1.44	>128	–	–	–	–	–	–	–
KVLSKVHTLLKAVLAL-NH2 [At02]	0.04 ± 0.00	0.03 ± 0.00	0.02 ± 0.00	0.00 ± 0.00%	0.30 ± 0.16	2.41 ± 0.98	10.28 ± 4.3%	23.10 ± 3.41	>128	–	–	–	–	–	–	–
LHRLVKLVAALLRGYASKVDTH [Tc08]	0.11 ± 0.04	0.11 ± 0.09	0.27 ± 0.10	0.30 ± 0.05%	2.00 ± 1.13	15.47 ± 1.58	28.81 ± 2.6 7%	–	–	–	–	–	–	–	–	>128
LIKVVNHVQYNVTLHWHGIR [Tc07, IAP from Theobroma cacao, Laccase 17]	–	–	–	–	–	–	–	–	–	–	–	–	19.9	17.1	23.5	–
LLDKLKRTLLSIEAVLI [Tc11, IAP from Theobroma cacao, LRR and NB-ARC domains-containing disease resistance protein]	–	–	–	–	–	–	–	–	–	–	–	–	56.7	57.0	45.8	–
RVLKDVESALRESVANWKIVIG [Tc04, IAP from Theobroma cacao, Purple acid phosphatase 3]	–	–	–	–	–	–	–	–	–	–	–	–	36.3	15.8	14.3	–
VALRLAKEVIKVQQGW [Tc01, IAP from Theobroma cacao, Embryo defective 1381 isoform 2]	–	–	–	–	–	–	–	–	–	–	–	–	64.8	4.5	5.0	–
